Reference: PubChem BioAssay AID1159563 (GlaxoSmithKline (GSK), 2015)
Active and inactive are the calls of the source. How the calls were made is not given here.

system: HepG2 cytotoxicity; test: human hepatoma cell viability loss – cytotoxicity control (AID 1159563)

For `Cc1cccnc1CN1CCN(CCCOc2ccc(-c3ccc(C(N)=O)cc3)cc2)CC1`, which IC50 is on record?
Its IC50 is > 100 µM (inactive).

Which IC50 does the source give for `O=C(Nc1nc(-c2ccccn2)cs1)C1CCc2ccccc2C1` (stereo not given) here?
Its IC50 is 40 µM.

`Cc1nnnn1-c1cccc(C(=O)N2CCC[C@@]3(C)c4ncncc4CCC23)c1` (stereo not given in full) was tested. Which IC50 did it give?
The IC50 was > 100 µM (inactive).

How did the IC50 turn out when `NC(N)=Nc1nc(-c2ccc(NC(N)=NCCN3CCCC3)cc2)cs1` was run?
The IC50 was > 100 µM (inactive).

Which IC50 does the source give for `N#Cc1cccc(CN2CCC(c3nc(-c4ccc(C(F)(F)F)nc4)no3)CC2)c1` here?
Its IC50 is > 100 µM (inactive).

Which IC50 does the source give for `O=C(Cc1ccccc1)Nc1[nH]nc2sc(C(=O)NC3CCCC3)cc12` here?
Its IC50 is 50 µM.

`COc1cc(OC)cc(C(NS(=O)(=O)c2ccc(Cl)c(C(F)(F)F)c2)c2nccn2C)c1` (stereo not given) was tested. Which IC50 did it give?
Its IC50 is > 100 µM (inactive).

How did the IC50 turn out when `CC(C)CC(=O)Nc1cc(C2CC2)nn1-c1nc2c(c(=O)[nH]1)CCCC2` was run?
Its IC50 is > 100 µM (inactive).

Which IC50 does the source give for `Cn1ccnc1-c1nc(NCc2ccccc2Cl)cc(C2CC2)n1` here?
Its IC50 is 20 µM.

`O=C(Cn1cnc2cc([N+](=O)[O-])ccc2c1=O)NCCc1ccc(Cl)cc1Cl` was tested. Which IC50 did it give?
Its IC50 is > 100 µM (inactive).

Which IC50 does the source give for `O=C(Nc1ncc([N+](=O)[O-])s1)C1CC1` here?
Its IC50 is > 100 µM (inactive).

How did the IC50 turn out when `Cc1cc(C#N)c([N+](=O)[O-])cc1Br` was run?
The IC50 was 32 µM.

How did the IC50 turn out when `COc1ccc(CN(C)Cc2ccncc2)cc1-c1ccc(S(=O)(=O)NC2CCC2)s1` was run?
Its IC50 is > 100 µM (inactive).

For `COc1ccc(Cl)cc1CC(=O)Nc1n[nH]c(-c2ccccn2)n1`, which IC50 is on record?
The IC50 was 32 µM.

How did the IC50 turn out when `C[C@@H](Oc1cc(-n2cnc3ccc(O[C@H]4CCNC4)cc32)sc1C(N)=O)c1ccccc1Cl` was run?
Its IC50 is 16 µM.

For `Cc1cc(Oc2cc(Cl)c(Cl)cc2Cl)n2ncnc2n1`, which IC50 is on record?
Its IC50 is 32 µM.

Which IC50 does the source give for `COc1ccccc1C(=O)Nc1nnc(-c2ccc3c(c2)OCO3)s1` here?
Its IC50 is > 100 µM (inactive).

With `CCc1c(C)nc(-n2nc(C)cc2NC(=O)COc2ccccc2F)[nH]c1=O` as the compound, how does the IC50 read?
The IC50 was > 100 µM (inactive).

Which IC50 does the source give for `CC(c1ccc2c(c1)CCCC2)N(C)c1ncc2c(N)nc(N)nc2n1` (stereo not given) here?
The IC50 was 50 µM.

With `CN(Cc1nnnn1C1CCN(Cc2ccc(-n3ccnc3)cc2)CC1)c1ccc(F)cc1F` as the compound, how does the IC50 read?
Its IC50 is > 100 µM (inactive).

Which IC50 does the source give for `O=C1CN(C2CCCc3c(OCc4ccncc4)cccc32)C(=O)N1C1CCCCC1` (stereo not given) here?
The IC50 was > 100 µM (inactive).

How did the IC50 turn out when `Cc1nc(-c2ccncc2)ncc1C(C)NC(=O)c1ccc(Cl)s1` (stereo not given) was run?
Its IC50 is > 100 µM (inactive).

For `COc1ccc(C2=NCC(CSc3nnc(-c4ccc5c(c4)OCO5)o3)S2)cc1` (stereo not given), which IC50 is on record?
Its IC50 is > 100 µM (inactive).

Which IC50 does the source give for `CCn1c(NC(=O)Cc2ccc(F)cc2)nc2ccccc21` here?
Its IC50 is > 100 µM (inactive).

With `Nc1ncnc2c1ncn2[C@@H]1O[C@H](CO)C[C@H]1O` as the compound, how does the IC50 read?
The IC50 was > 100 µM (inactive).

How did the IC50 turn out when `Cc1nc2c(-c3cccs3)c(C)nn2c(NCCO)c1C` was run?
Its IC50 is > 100 µM (inactive).

For `COc1cc(F)c2ncc(F)c(CCN3CC[C@H](NCc4cc5c(cn4)OCS5)[C@@H](O)C3)c2c1`, which IC50 is on record?
The IC50 was 50 µM.

Which IC50 does the source give for `CCc1cccc(CC)c1-n1c(SCC(=O)NC(=O)NCc2ccco2)nnc1-c1cccnc1` here?
The IC50 was > 100 µM (inactive).

For `C[C@@H](Oc1cc(-n2cnc3cc(N)ccc32)sc1C(N)=O)c1ccccc1Cl`, which IC50 is on record?
The IC50 was 20 µM.

Which IC50 does the source give for `COc1ccc(Nc2nccc(N(C)c3n[nH]c4c(F)cccc34)n2)cc1S(C)(=O)=O` here?
The IC50 was 20 µM.

For `CCOC(=O)c1noc(N)c1-c1ccccc1`, which IC50 is on record?
Its IC50 is > 100 µM (inactive).

How did the IC50 turn out when `CC(=O)Nc1nc(-c2cc(C)ccc2C)c(C)s1` was run?
Its IC50 is > 100 µM (inactive).

With `COc1cccc(CCNC(=O)C(c2cn[nH]c2)N2CCN(c3ccc(Cl)cc3)CC2)c1` (stereo not given) as the compound, how does the IC50 read?
The IC50 was 50 µM.

How did the IC50 turn out when `O=C1CN(C(=O)c2cccc(Nc3ncc(-c4ccc5c(c4)OCO5)cn3)c2)CCN1` was run?
The IC50 was > 130 µM (inactive).

With `CNc1c(C(N)=O)c(-c2ccc3scnc3c2)nn1CC(F)(F)F` as the compound, how does the IC50 read?
The IC50 was > 100 µM (inactive).

With `CC(C)Oc1cccc(N2CCC(C(=O)N3CCCN(C(C)C)CC3)CC2)c1` as the compound, how does the IC50 read?
The IC50 was > 100 µM (inactive).

Which IC50 does the source give for `CN(C)S(=O)(=O)c1ccc(-c2cnc(N)c(-c3nc4ccc(F)cc4[nH]3)c2)cc1` here?
The IC50 was > 100 µM (inactive).

Which IC50 does the source give for `COCCn1c(-c2ccc3c(c2)OCO3)cnc1NCc1ccccc1OC` here?
Its IC50 is 40 µM.

For `COc1cc(NC(=O)Nc2cccc(CNC(=O)OC3CCCCC3)c2)ccc1-c1cnco1`, which IC50 is on record?
Its IC50 is 40 µM.

`COc1ccc(S(=O)(=O)Nc2ccc(C(=O)Nc3nc(-c4ccccn4)cs3)cc2)cc1` was tested. Which IC50 did it give?
Its IC50 is 63 µM.

Which IC50 does the source give for `CCN(C)Cc1ccc(N2CCC(NS(=O)(=O)c3ccc4c(c3)CCO4)CC2)nc1` here?
The IC50 was > 100 µM (inactive).

With `Cc1nccn1C1CCCN(C(=O)c2cc3c(F)cccc3s2)C1` (stereo not given) as the compound, how does the IC50 read?
The IC50 was > 100 µM (inactive).

For `Cc1cc2ncn(-c3ccc([N+](=O)[O-])cc3C#N)c2cc1C`, which IC50 is on record?
Its IC50 is > 100 µM (inactive).

Which IC50 does the source give for `COc1ccc2ncc(Cl)c(CCN3CC[C@H](NCc4cc5c(cn4)OCS5)[C@@H](O)C3)c2n1` here?
Its IC50 is 25 µM.

`N#Cc1ccc(S(=O)(=O)N2CCC3(CCN(c4ccccc4)C3=O)CC2)cc1` was tested. Which IC50 did it give?
The IC50 was > 100 µM (inactive).

How did the IC50 turn out when `Cn1nc(C(=O)N2CCc3ccccc32)c2c1CCS(=O)(=O)C2` was run?
Its IC50 is > 100 µM (inactive).

Which IC50 does the source give for `CC(=Cc1ccccc1)CN1CCC(=O)N(Cc2cccnc2)CC1` here?
Its IC50 is > 100 µM (inactive).

With `O=C(NCCc1nc(-c2ccc(F)c(F)c2)n[nH]1)C1CCCCC1` as the compound, how does the IC50 read?
The IC50 was > 100 µM (inactive).

With `Cc1ccc(C)c(OC2CCN(C(=O)C(C)n3ccnc3)CC2)c1` (stereo not given) as the compound, how does the IC50 read?
Its IC50 is > 100 µM (inactive).

How did the IC50 turn out when `NC(=O)c1cc(F)ccc1Nc1nc(NC2CCC(O)CC2)ncc1Br` (stereo not given) was run?
The IC50 was 50 µM.
